In US20260297095A1, “NOVEL PYRROLOTRIAZINE DERIVATIVE AND USE THEREOF” (Pelemed Co., Ltd., priority 2024, published 2026) one finds inhibition and GI50 data, which are given here for 18 compounds.

The first assay deals with YES1 kinase (Homo sapiens, UniProt P07947). The experiment in a line: YES1 kinase inhibition, ADP Glo assay (Promega). In kind it is biochemical. The conditions noted are these: compound 10 nM; read-out: YES1 enzyme, % inhibition, 10 nM. On the procedure: To evaluate the inhibitory activity against YES1 kinase of the compound according to the present invention, ADP Glo assay (Promega) was used, and the following method was performed with reference to the Promega kinase enzyme system protocol. To proceed with the experiment, buffers A-F and compound dilution plates were required.
Chain of YES1 kinase (P07947 whole entry): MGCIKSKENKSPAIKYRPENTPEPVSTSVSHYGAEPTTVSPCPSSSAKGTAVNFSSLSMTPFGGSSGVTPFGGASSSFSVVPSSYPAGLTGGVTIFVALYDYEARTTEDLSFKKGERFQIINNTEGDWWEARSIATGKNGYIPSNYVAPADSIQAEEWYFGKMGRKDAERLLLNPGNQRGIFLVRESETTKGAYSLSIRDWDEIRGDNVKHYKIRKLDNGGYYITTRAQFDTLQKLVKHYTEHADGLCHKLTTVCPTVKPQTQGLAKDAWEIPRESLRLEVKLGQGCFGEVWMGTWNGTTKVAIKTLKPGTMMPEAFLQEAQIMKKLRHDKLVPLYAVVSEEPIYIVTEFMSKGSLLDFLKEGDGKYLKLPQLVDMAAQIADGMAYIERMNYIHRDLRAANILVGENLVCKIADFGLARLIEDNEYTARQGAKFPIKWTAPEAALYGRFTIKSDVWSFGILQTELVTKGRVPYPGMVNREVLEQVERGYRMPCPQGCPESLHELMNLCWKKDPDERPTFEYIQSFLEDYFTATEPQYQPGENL
To prepare A.4X reaction buffer, 800 μl of 5X reaction buffer and 200 μl of distilled water were used. To prepare B.4X kinase buffer, 996.6 μl of A.4X reaction buffer, 2 μl of 0.1M DTT, and 3.2 μl of 2.5M MnCl2 were added and mixed. To prepare C.1X kinase buffer (containing 5% DMSO) used for compound dilution, 250 μl of B.4X kinase buffer, 700 μl of distilled water, and 50 μl of DMSO were added, so that the final DMSO concentration became 5%. Then, 10 mM compounds were diluted 100-fold to prepare 100 μM solutions, and then D.5X inhibitor solution was prepared so that the compound concentration became 5 uM. Using a 96-well plate, 5 μM compounds were 3-fold diluted using C.1X kinase buffer (containing 5% DMSO) to prepare compound plates with concentrations ranging from 0.25 μM to 5 μM. The resulting plates were stored at room temperature. To prepare E. 2.5X ATP/substrate mixture, 50 μl of B.4X kinase buffer, 50 μl of […], and 100 μl of substrate were mixed. To prepare F YES1 kinase enzyme solution, 35 μl of B.4X kinase buffer, 0.4 μl of YES1 enzyme, and 104.6 μl of distilled water were used. Once the diluted compound plates, ATP/substrate mixture, and YES1 kinase solution were all prepared, 3 μL each was transferred from the diluted compound plate to a luciferase 96-well white plate (Since the total volume of the ATP/substrate and YES1 kinase solution that reacts with the compound is 15 μL, the compounds were diluted 5-fold, making the final compound concentration 0.05 μM-1 μM). Then, 6 μL of F. YES1 Kinase Enzyme Solution was transferred to each well, pipetted 10 times to mix, and incubated at room temperature in a shaker for 10 minutes. Next, 6 μL of E. 2.5X ATP/Substrate Mixture was transferred to each well, pipetted 10 times to mix, and centrifuged at 12,000 rpm for 5 minutes. The plate was then incubated in a shaker at room temperature for 40 minutes. After that, 15 μL of ADP-Glo Reagent, dissolved at room temperature, was added to each well, pipetted 10 times, and incubated in a shaker at room temperature for 40 minutes. Finally, 30 μL of Kinase Detection Reagent, dissolved at room temperature, was added, pipetted 10 times, incubated in a shaker at room temperature for 30 minutes. Luminescence was measured using a luminescence plate reader. Then, the background value was subtracted from all measured values, and the YES1 kinase activity at compound concentrations of 1 nM, 10 nM, and 100 nM was calculated. The measured values were calculated as percentages using the average value of the negative control. Graphs were drawn using GraphPad Prism, and the enzyme activity was calculated as a percentage of YES1 kinase inhibition at compound concentrations of 1 nM, 10 nM, and 100 nM. IC50 values were obtained using Microsoft Excel.
For orientation: ADP-Glo first removes unused ATP, then detects ADP through luciferase.
Turning to `COc1cc(-c2cc(N3CC[C@@H](N(C)C)[C@H](F)C3)n3ncnc(N)c23)ccc1NC(=O)OC(C)(C)C` [Example 32, tert-butyl (4-(4-amino-7-((3R,4R)-4-(dimethylamino)-3-fluoropiperidin-1-yl)pyrrolo[2,1-f][1,2,4]triazin-5-yl)-2-methoxyphenyl)carbamate], the inhibition at 0.01 µM is 51%.

Regarding `COc1cc(-c2cc(N3C[C@H]4CN(C)C[C@H]4C3)n3ncnc(N)c23)ccc1NC(=O)OC(C)(C)C` [Example 34, tert-butyl (4-(4-amino-7-((3aR,6aS)-5-methylhexahydropyrrolo[3,4-c]pyrrol-2(1H)-yl)pyrrolo[2,1-f][1,2,4]triazin-5-yl)-2-methoxyphenyl)carbamate], the inhibition at 0.01 µM amounted to 37%.

Staying with this assay, now noted: compound 100 nM; read-out: YES1 enzyme, % inhibition, 100 nM.
As to `COc1cc(-c2cc(N3CC[C@@H](N(C)C)[C@H](F)C3)n3ncnc(N)c23)ccc1NC(=O)OC(C)(C)C` [Example 32, tert-butyl (4-(4-amino-7-((3R,4R)-4-(dimethylamino)-3-fluoropiperidin-1-yl)pyrrolo[2,1-f][1,2,4]triazin-5-yl)-2-methoxyphenyl)carbamate], the inhibition at 0.1 µM came to 82%.

For `COc1cc(-c2cc(N3C[C@H]4CN(C)C[C@H]4C3)n3ncnc(N)c23)ccc1NC(=O)OC(C)(C)C` [Example 34, tert-butyl (4-(4-amino-7-((3aR,6aS)-5-methylhexahydropyrrolo[3,4-c]pyrrol-2(1H)-yl)pyrrolo[2,1-f][1,2,4]triazin-5-yl)-2-methoxyphenyl)carbamate], the inhibition at 0.1 µM is 74%.

Another assay deals with KYSE-70 esophageal cancer cell line. The experiment in a line: Cell growth inhibition of KYSE-70 (Sulforhodamine B). In kind it is cell-based. The conditions noted are these: Homo sapiens; KYSE-70, 72 hours; read-out: KYSE70 GI50. On the procedure:
The cell line according to the present invention was selected as KYSE-70, an esophageal cancer cell line in which YES1 is amplified. The evaluation of cell growth inhibition was performed as follows.
KYSE-70 was cultured in RPMI-1640 (Capricorn) supplemented with 10% FBS (Cellgro). The cells were seeded 24 hours prior to compound treatment, into three 96-well F-bottom clear plates (Greiner), with 7,500 cells per well in 180 μL of medium. The 10 mM compound was diluted 100-fold in medium to prepare a 100 μM compound, which was then placed into a 96-well plate and further 3-fold diluted in medium to prepare a compound plate with concentrations ranging from 0.046 μM to 100 μM. 20 μL of each compound from the drug plate was added to the cell-seeded plates to achieve final concentrations of 0.0046 μM to 10 μM. At the same time, 50 μL of 33% trichloroacetic acid was injected into one plate and the plate was fixed by incubating at 4° C. This was referred to as the Do plate. Viable cells were measured 72 hours after compound treatment by injecting 50 μL of 33% trichloroacetic acid and incubating at 4° C. for more than 1 hour to fix the cells. This was referred to as the D3 plate. After the Do plate and D3 plates were washed 5 times with sterile water, 100 μL of 0.04% Sulforhodamine B solution in 1% acetic acid was added and reacted for 1 hour to stain the cells. After staining, the plates were washed 4 times with 1% acetic acid solution and completely dried. Then, the Sulforhodamine B bound to cellular proteins was completely dissolved with 10 mM Tris base solution (pH 10.5). The absorbance was measured at a wavelength of 510 nm using a microplate reader (TECAN, sunrise microplate reader). The analysis was performed using GraphPad Prism. The average absorbance of the Do plate was set to 0%, and the average absorbance of the negative control of the D3 plate was set to 100%, from which a graph was drawn and the GI50 values were calculated. Each test was performed twice.
As to `CNCCC1CCN(c2c(C)c(-c3ccc(NC(=O)OC(C)(C)CF)c(OC)c3)c3c(N)ncnn23)CC1` [Example 63, 1-fluoro-2-methylpropan-2-yl (4-(4-amino-6-methyl-7-(4-(2-(methylamino)ethyl)piperidin-1-yl)pyrrolo[2,1-f][1,2,4]triazin-5-yl)-2-methoxyphenyl)carbamate], the GI50 is not above 100 nM.

Regarding `COc1cc(-c2cc(N3CCC(N(C)C)CC3)n3ccnc(N)c23)ccc1NC(=O)OC(C)(C)C` [Example 134, tert-butyl (4-(1-amino-6-(4-(dimethylamino)piperidin-1-yl)pyrrolo[1,2-a]pyrazin-8-yl)-2-methoxyphenyl)carbamate], the GI50 is not above 100 nM.

For the compound `CNC1CCN(CCc2cc(-c3ccc(NC(=O)OC(C)(C)CF)c(OC)c3)c3c(N)ncnn23)CC1` [Example 67, 1-fluoro-2-methylpropan-2-yl (4-(4-amino-7-(2-(4-(methylamino)piperidin-1-yl)ethyl)pyrrolo[2,1-f][1,2,4]triazin-5-yl)-2-methoxyphenyl)carbamate], the GI50 was in the range of 100 to 1000 nM.

On to `COc1cc(-c2cc(N3CCC(N)CC3)n3ncnc(N)c23)ccc1NC(=O)OC(C)(C)C(F)(F)F` [Example 72, 1,1,1-trifluoro-2-methylpropan-2-yl (4-(4-amino-7-(4-aminopiperidin-1-yl)pyrrolo[2,1-f][1,2,4]triazin-5-yl)-2-methoxyphenyl)carbamate], for which the GI50 is 100 to 1000 nM.

On to `CNC1CCN(CCc2c(C)c(-c3ccc(NC(=O)OC(C)(C)CF)c(OC)c3)c3c(N)ncnn23)CC1` [Example 64, 1-fluoro-2-methylpropan-2-yl (4-(4-amino-6-methyl-7-(2-(4-(methylamino)piperidin-1-yl)ethyl)pyrrolo[2,1-f][1,2,4]triazin-5-yl)-2-methoxyphenyl)carbamate], for which the 50% growth inhibitory concentration (GI50) was not above 100 nM.

As for `COc1cc(-c2c(I)c(N3CCC(N)CC3)n3ncnc(N)c23)ccc1NC(=O)OC(C)(C)C` [Example 126, tert-butyl (4-(4-amino-7-(4-aminopiperidin-1-yl)-6-iodopyrrolo[2,1-f][1,2,4]triazin-5-yl)-2-methoxyphenyl)carbamate], the GI50 lay within 100 to 1000 nM.

As to `CC(C)(C)OC(=O)Nc1ccc(-c2cc(N3CCC(N)CC3)n3ncnc(N)c23)c2c1OCO2` [Example 73, tert-butyl (7-(4-amino-7-(4-aminopiperidin-1-yl)pyrrolo[2,1-f][1,2,4]triazin-5-yl)benzo[d][1,3]dioxol-4-yl)carbamate], the concentration for 50% growth inhibition (GI50) was not above 100 nM.

On to `COc1cc(-c2cc(N3CCC(N)CC3)n3ccnc(N)c23)ccc1NC(=O)OC(C)(C)C` [Example 132, tert-butyl (4-(1-amino-6-(4-aminopiperidin-1-yl)pyrrolo[1,2-a]pyrazin-8-yl)-2-methoxyphenyl)carbamate], for which the GI50 was 100 to 1000 nM.

Regarding `COc1cc(-c2cc(N3CCC(C(N)=O)CC3)n3ncnc(N)c23)ccc1NC(=O)OC(C)(C)C` [Example 97, tert-butyl (4-(4-amino-7-(4-carbamoylpiperidin-1-yl)pyrrolo[2,1-f][1,2,4]triazin-5-yl)-2-methoxyphenyl)carbamate], the GI50 is more than 10000 nM.

As for `COc1cc(-c2cc(NC[C@H]3CC[C@@H](N)C3)n3ncnc(N)c23)ccc1NC(=O)OC(C)(C)C` [Example 110, tert-butyl (4-(4-amino-7-((((1S,3R)-3-aminocyclopentyl)methyl)amino)pyrrolo[2,1-f][1,2,4]triazin-5-yl)-2-methoxyphenyl)carbamate], the GI50 was in the range of 100 to 1000 nM.

Take `CCC1(N)CCN(c2cc(-c3ccc(NC(=O)OC(C)(C)C)c(OC)c3)c3c(N)ncnn23)CC1` [Example 82, tert-butyl (4-(4-amino-7-(4-amino-4-ethylpiperidin-1-yl)pyrrolo[2,1-f][1,2,4]triazin-5-yl)-2-methoxyphenyl)carbamate]: the GI50 is not above 100 nM.

In the case of `COc1cc(-c2cc(N[C@@H]3CC[C@H](CN)C3)n3ncnc(N)c23)ccc1NC(=O)OC(C)(C)C` [Example 111, tert-butyl (4-(4-amino-7-(((1R,3S)-3-(aminomethyl)cyclopentyl)amino)pyrrolo[2,1-f][1,2,4]triazin-5-yl)-2-methoxyphenyl)carbamate], the GI50 was more than 10000 nM.

For the compound `COc1cc(-c2c(C(F)(F)F)c(N3CCC(N)CC3)n3ncnc(N)c23)ccc1NC(=O)OC(C)(C)C` [Example 125, tert-butyl (4-(4-amino-7-(4-aminopiperidin-1-yl)-6-(trifluoromethyl)pyrrolo[2,1-f][1,2,4]triazin-5-yl)-2-methoxyphenyl)carbamate], the GI50 lay within 100 to 1000 nM.

With `COc1cc(-c2cc(N3CCC(C(C)N)CC3)n3ncnc(N)c23)ccc1NC(=O)OC(C)(C)C` (centres unmarked) [Example 81, tert-butyl (4-(4-amino-7-(4-(1-aminoethyl)piperidin-1-yl)pyrrolo[2,1-f][1,2,4]triazin-5-yl)-2-methoxyphenyl)carbamate], the 50% growth inhibitory concentration (GI50) lay within 100 to 1000 nM.

For `CNCCC1CCN(c2c(F)c(-c3ccc(NC(=O)OC(C)(C)C)c(OC)c3)c3c(N)ncnn23)CC1` [Example 131, tert-butyl (4-(4-amino-6-fluoro-7-(4-(2-(methylamino)ethyl)piperidin-1-yl)pyrrolo[2,1-f][1,2,4]triazin-5-yl)-2-methoxyphenyl)carbamate], the GI50 was not above 100 nM.

As to `CNC1CCN(CCc2c(F)c(-c3ccc(NC(=O)OC(C)(C)C)c(OC)c3)c3c(N)ncnn23)CC1` [Example 130, tert-butyl (4-(4-amino-6-fluoro-7-(2-(4-(methylamino)piperidin-1-yl)ethyl)pyrrolo[2,1-f][1,2,4]triazin-5-yl)-2-methoxyphenyl)carbamate], the GI50 is not above 100 nM.

For orientation: inhibition means the change of the read-out against control, counted positive when it falls. As a reminder, the GI50 is the concentration that inhibits growth by half.
